Results from article PMC8266241, “Tetralone derivatives are MIF tautomerase inhibitors and attenuate macrophage activation and amplify the hypothermic response in endotoxemic mice” (Journal of Enzyme Inhibition and Medicinal Chemistry, 2021).
Where two headings read alike, the source gives them in different places.

Tests used:
recombinant human MIF [1] = biological target: T1, recombinant human MIF (Homo sapiens, UniProt P14174); test: Tautomerase assay: enol-keto tautomeric conversion of phenylpyruvate (ketonase reaction); assay type: biochemical; conditions: for IC50: enol-keto conversion of phenylpyruvate, 100 µM substrate, pH 6.5, read-out: Inhibition of ketonase (IC50); for IC50enolase/IC50ketonase: selectivity for ketonase
T1 construct: purchased ATGen Co. Ltd., Seoul, Republic of Korea
T1 sequence (P14174 2-115 limits assumed): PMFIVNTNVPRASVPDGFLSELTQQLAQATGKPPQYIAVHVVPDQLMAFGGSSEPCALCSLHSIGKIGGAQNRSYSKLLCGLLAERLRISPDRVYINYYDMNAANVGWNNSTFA
Protocol: The enol-keto tautomeric conversion of phenylpyruvate (ketonase reaction) was assessed at room temperature by monitoring the decrease in absorbance at 288 nm on a dual path Shimadzu 2100 UV spectrophotometer (Shimadzu, Kyoto, Japan) according to Taylor et al.[55] with minor modifications. Briefly, the 0.72 ml reaction mixture consisted of the enzyme at a final concentration of 0.4 µg/ml and the substrate in a 50 mM sodium phosphate buffer (pH = 6.5). The phenylpyruvate substrate was dissolved fresh in absolute ethanol to yield a final concentration of 100 µM. The reaction was monitored for 75 s at room temperature. A recombinant human MIF (from ATGen Co. Ltd., Seoul, Republic of Korea) was used as the enzyme source. Inhibitors were dissolved fresh in ethanol or DMSO. […] The compounds were diluted to achieve final concentrations of 200, 100, 50, 20, 5, 1, and 0.5 µM in the reaction mixture. All data presented have been derived from consonant measurements repeated at least three times. […] The areas under the curves obtained with and without the inhibitors were used to compare the conversion rates of the substrate.

recombinant human MIF [2] = biological target: T1, recombinant human MIF; test: Tautomerase assay: keto-enol tautomeric conversion of phenylpyruvate (enolase activity); assay type: biochemical; conditions: for IC50: keto-enol conversion of phenylpyruvate, read-out: Inhibition of enolase (IC50)
RAW264.7 cells [3] = test: ROS production in LPS-induced macrophages (DHR123); assay type: cell-based, mouse; conditions: 20 µM pre-treatment, 1 µg/ml LPS 24 h; for decrease in ROS concentrations: vs LPS-activated cells
Protocol: (§1) In cell culture experiments, we used RAW264.7 mouse monocyte/macrophage cell line (ECACC, Salisbury, UK; passage number: 8–15) and RAW-Blue™ cells (Invivogen, Toulouse France, passage number: 10–14). RAW264.7 and RAW-Blue™ cells were cultured in 5% CO2 at 37 °C in endotoxin-tested Dulbecco’s Modified Eagle’s Medium (high glucose, 4.5 g/L, 2 mM L-glutamine; Corning, Corning Incorporated Costar, Corning, NY) supplemented with 10% FBS. For culturing RAW-Blue™ cells, we also added 100 µg/ml normocin and 200 µg/ml zeocin to the medium. The day before the experiments, cells were plated onto 24- or 96-well plates and cultured overnight. […] The freshly synthesised tetralone derivatives were dissolved in DMSO and applied in 20 µM concentration as a pre-treatment, added 30 min before LPS induction. To exclude the effects of vehicle, both CTRL and LPS-treated cells received the same amount of DMSO.
To measure the amount of reactive oxygen species we seeded RAW264.7 cells onto 96-well plates in a density of 10^5cells/well. Cells were treated with the tetralones as a pre-treatment and they were induced with 1 µg/ml LPS for 24 h. Then 2 µM dihydrorhodamine123 (DHR123; Life Technologies, Carlsbad, CA) fluorescent dye was added and incubated for an additional 2 h. Fluorescent intensity of the dye (excitation 490 nm/emission 510–570 nm) was measured with Glomax Multi Detection System (Promega®, Madison, WI, USA).

RAW264.7 cells [4] = test: Nitrite production in LPS-induced macrophages (Griess reagent); assay type: cell-based, mouse; conditions: 20 µM pre-treatment, 1 µg/ml LPS 24 h; for lower nitrite concentrations: vs LPS-activated cells
Protocol: as §1
For nitrite measurements, we applied the same culturing conditions, treatments, and equipment as described above. After 24 h of incubation, 50 µl medium was removed and added to equal amount of Griess reagent (Sigma-Aldrich, St. Louis, MO, USA) in 96-well plate. The optical density was measured at 550 nm wavelength.

[5] = tested on: NF-κB activation in RAW-Blue™ cells; test: NF-κB activation reporter assay (QUANTI-Blue); assay type: cell-based, mouse; conditions: 20 µM pre-treatment, 1 µg/ml LPS 24 h, vs LPS-activated cells
Protocol: as §1
The detection of NF-κB activation was accomplished by using RAW-Blue™ cells. RAW-Blue™ cells are genetically modified RAW264.7 macrophages, which are able to secrete embryonic alkaline phosphatase (EAP) upon LPS induction and following NF-κB activation. The levels of EAP can be examined using QUANTI-Blue™ detection medium.
RAW-Blue™ cells were seeded into 96-well plate at a density of 10^5cells/well. Cells were treated with tetralones (pre-treatment, 20 µM) and with 1 µg/ml LPS. 24 h after LPS treatment 20 µl medium was removed and incubated with 100 µl QUANTI-Blue™ detection medium (Invivogen; Toulouse, France) in 96-well plates. The optical density was measured at 600 nm.

TNF-α in RAW264.7 cells = test: TNF-α production, ELISA; assay type: cell-based, mouse; conditions: 20 µM pre-treatment, 1 µg/ml LPS 24 h
Protocol: as §1, with “To exclude the effects of vehicle, both CTRL and LPS-treated cells received the same amount of DMSO.” left out
(§2) For cytokine concentration measurements, RAW264.7 cells were cultured in 24-well plates at a density of 5*10^5 cells/well and treated with tetralones (pre-treatment, 20 µM) and with 1 µg/ml LPS for 24 h. TNF-α, IL-6 and CCL-2 levels were determined from the culturing media by using Ready-Set-Go ELISA kits (eBioscience, San Diego, CA, USA) for TNF-α and IL-6 detection and mouse CCL-2 uncoated ELISA-kit (Invitrogen, Vienna, Austria) for CCL-2 determination. ELISA-kits were applied as provided by the protocol of the manufacturer, the optical density was measured at 450 nm.

IL-6 in RAW264.7 cells = test: IL-6 production, ELISA; assay type: cell-based, mouse; conditions: 20 µM pre-treatment, 1 µg/ml LPS 24 h
Protocol: as §1, with “To exclude the effects of vehicle, both CTRL and LPS-treated cells received the same amount of DMSO.” left out
as §2

recombinant human MIF [6] = biological target: T1, recombinant human MIF; set-up: method as in PMID 15778121; conditions: reference inhibitor; read-out: enolase IC50 of reference inhibitor; cited from earlier work
recombinant human MIF [7] = biological target: T1, recombinant human MIF; set-up: method as in PMID 15778121; conditions: reference inhibitor; read-out: ketonase IC50 of reference inhibitor; cited from earlier work

Row | SMILES | IC50 (recombinant human MIF [1]) | IC50 (recombinant human MIF [2]) | other results
1 | O=C1/C(=C/c2ccccc2)C[S+]([O-])c2ccccc21 (racemic) [Compound 37] | 94.6 ± 25.4 µM | 193 ± 59 µM | –
2 | O=C1/C(=C/c2ccccc2)Cc2ccccc21 [Compound 1, E-2-phenylmethylene-1-indanone] | 82.8 ± 16.5 µM | 20.2 ± 3.9 µM | –
3 | O=C1/C(=C/c2c(Cl)cccc2Cl)CCc2ccccc21 [Compound 11] | 58.9 ± 10.3 µM | 35.5 ± 5.9 µM | –
4 | O=C1/C(=C/c2ccc(Cl)cc2Cl)CCc2ccccc21 [Compound 13] | 16.9 ± 4.2 µM | 301 ± 42 µM | IC50enolase/IC50ketonase (recombinant human MIF [1]): 18
5 | O=C1/C(=C/c2cccs2)CCc2ccccc21 [Compound 20] | 54 ± 5.5 µM | 52.3 ± 7.6 µM | –
6 | O=C1/C(=C/c2ccc[nH]2)CCc2ccccc21 [Compound 21] | 142 ± 31 µM | 125 ± 39 µM | –
7 | Cn1cccc1C=C1CCc2ccccc2C1=O [Compound 22] | 23.8 ± 3.8 µM | 27.8 ± 5.6 µM | –
8 | O=C1/C(=C/c2c[nH]c3ccccc23)CCc2ccccc21 [Compound 23] | 58.8 ± 10.6 µM | 2.89 ± 0.75 µM | effect on ROS level (RAW264.7 cells [3]): induced a slight increase; effect on nitrite production (RAW264.7 cells [4]): could also inhibit nitrite production, but to a lower extent; effect on NF-κB activation [5]: slight, but statistically significant inhibitory effect; IC50ketonase/IC50enolase (recombinant human MIF [2]; selectivity for enolase): 20
9 | O=C1/C(=C/c2ccccc2)COc2ccccc21 [Compound 27] | 267 ± 59 µM | 1740 ± 483 µM | –
10 | Cc1ccc(/C=C2\COc3ccccc3C2=O)cc1 [Compound 28] | 102 ± 19 µM | 3620 ± 829 µM | –
11 | Cc1cccc(/C=C2\COc3ccccc3C2=O)c1 [Compound 29] | 56.1 ± 8.8 µM | 443 ± 112 µM | –
12 | COc1ccc(/C=C2\COc3ccccc3C2=O)cc1 [Compound 30] | 96 ± 29.9 µM | 425 ± 70 µM | –
13 | COc1cccc(/C=C2\COc3ccccc3C2=O)c1 [Compound 31] | 97 ± 20.7 µM | 205 ± 32 µM | –
14 | COc1ccccc1/C=C1\COc2ccccc2C1=O [Compound 32] | 4.31 ± 1.34 µM | 1260 ± 159 µM | effect on TNF-α production (TNF-α in RAW264.7 cells): reduced TNF-α production; effect on IL-6 production (IL-6 in RAW264.7 cells): had the most dominant effect; decrease in ROS concentrations (RAW264.7 cells [3]): ~20%; lower nitrite concentrations (RAW264.7 cells [4]): ~50%; effect on NF-κB activation [5]: could not show any reducing effect
15 | O=C1/C(=C/c2ccc(Br)cc2)COc2ccccc21 [Compound 33] | 311 ± 77 µM | 1890 ± 438 µM | –
16 | O=C1/C(=C/c2ccccc2Br)COc2ccccc21 [Compound 34] | 98.3 ± 16 µM | 3200 ± 887 µM | –
17 | O=C1/C(=C/c2ccccc2)C(c2ccccc2)Oc2ccccc21 (stereo not shown) [Compound 35] | 419 ± 113 µM | – | –
18 | O=C1/C(=C\c2ccccc2)CSc2ccccc21 [Compound 36] | 208 ± 42 µM | 633 ± 108 µM | –
19 | O=C1/C(=C/c2ccccc2)CS(=O)(=O)c2ccccc21 [Compound 38] | 160 ± 38 µM | 151 ± 27 µM | –
20 | O=C(O)/C=C/c1ccc(O)c(O)c1 [caffeic acid] | – | – | IC50 (recombinant human MIF [6]): 2 µM; IC50 (recombinant human MIF [7]): 0.5 µM

Now from value to molecule, other results behind:

Row | IC50 (recombinant human MIF [1]) | IC50 (recombinant human MIF [2]) | SMILES | other results
21 | 127 ± 20 µM | 113 ± 16 µM | O=C1/C(=C/c2ccccc2)CCc2ccccc21 [Compound 2] | –
22 | 84 ± 15.3 µM | 129 ± 19 µM | O=C1/C(=C/c2ccccc2)CCCc2ccccc21 [Compound 3, E-2-phenylmethylene-1-benzosuberone] | –
23 | 16.5 ± 3.4 µM | 2290 ± 343 µM | Cc1ccc(/C=C2\CCc3ccccc3C2=O)cc1 [Compound 4] | effect on ROS level (RAW264.7 cells [3]): failed to modify ROS level; effect on nitrite production (RAW264.7 cells [4]): could also inhibit nitrite production, but to a lower extent; effect on NF-κB activation [5]: slight, but statistically significant inhibitory effect
24 | 57 ± 14.1 µM | 33.4 ± 8.8 µM | COc1ccc(/C=C2\CCc3ccccc3C2=O)cc1 [Compound 5] | –
25 | 59.1 ± 9.7 µM | 42.8 ± 3.1 µM | O=C1/C(=C/c2ccc(Cl)cc2)CCc2ccccc21 [Compound 6] | –
26 | 2640 ± 406 µM | 458 ± 73 µM | O=C1/C(=C/c2ccccc2Cl)CCc2ccccc21 [Compound 7] | –
27 | 52.2 ± 11.5 µM | 232 ± 54 µM | O=C1/C(=C/c2ccc(Br)cc2)CCc2ccccc21 [Compound 8] | –
28 | 7340 ± 1020 µM | 3350 ± 424 µM | O=C1/C(=C/c2cccc(Br)c2)CCc2ccccc21 [Compound 9] | –
29 | 72.4 ± 3.4 µM | 42.1 ± 4.3 µM | O=C1/C(=C/c2ccc(F)cc2)CCc2ccccc21 [Compound 10] | –
30 | 2620 ± 696 µM | 91.5 ± 9 µM | O=C1/C(=C/c2ccc(Cl)c(Cl)c2)CCc2ccccc21 [Compound 12] | –
31 | 187 ± 32 µM | 37.7 ± 16.3 µM | O=C(O)c1ccc(/C=C2\CCc3ccccc3C2=O)cc1 [Compound 14] | –
32 | 90.2 ± 15.1 µM | 495 ± 101 µM | CN(C)c1ccc(/C=C2\CCc3ccccc3C2=O)cc1 [Compound 15] | –
33 | 146 ± 17 µM | 43.2 ± 12.4 µM | N#Cc1ccc(/C=C2\CCc3ccccc3C2=O)cc1 [Compound 16] | –
34 | 585 ± 94 µM | 302 ± 63 µM | COc1ccc(/C=C2\CCc3ccccc3C2=O)cc1OC [Compound 17] | –
35 | 50.7 ± 6 µM | 213 ± 31 µM | O=C1/C(=C/c2ccc3c(c2)OCO3)CCc2ccccc21 [Compound 18] | –
36 | 57.7 ± 12.6 µM | 25.4 ± 4.7 µM | O=C1/C(=C/c2ccco2)CCc2ccccc21 [Compound 19] | –
37 | 20.3 ± 5.5 µM | 28.6 ± 6 µM | O=C1C(=Cc2cccnc2)CCc2ccccc21 [Compound 25] | –
38 | 21 ± 6.9 µM | 209 ± 77 µM | O=C1/C(=C/c2ccncc2)CCc2ccccc21 [Compound 26] | effect on TNF-α production (TNF-α in RAW264.7 cells): reduced TNF-α production; effect on IL-6 production (IL-6 in RAW264.7 cells): had the most dominant effect; decrease in ROS concentrations (RAW264.7 cells [3]): ~20%; lower nitrite concentrations (RAW264.7 cells [4]): ~50%; effect on NF-κB activation [5]: slight, but statistically significant inhibitory effect; IC50enolase/IC50ketonase (recombinant human MIF [1]): 10
